Assays:
RXF 393 [1] = test: Growth inhibition of human RXF 393 cells incubated for 48 hrs by sulforhodamine B spectrophotometric assay; format: functional
SF-295 = test: Growth inhibition of human SF-295 cells incubated for 48 hrs by sulforhodamine B spectrophotometric assay; format: functional
BT-549 [2] = test: Growth inhibition of human BT-549 cells incubated for 48 hrs by sulforhodamine B spectrophotometric assay; format: functional
MDA-MB-231 [3] = test: Induction of apoptosis in human MDA-MB-231 cells assessed as increase in caspase-9 level at 10 uM incubated for 24 hrs by flow cytometry analysis; format: functional
MDA-MB-231 [4] = test: Induction of apoptosis in human MDA-MB-231 cells assessed as increase in caspase-8 level at 10 uM incubated for 24 hrs by flow cytometry analysis; format: functional
[5] = Acute toxicity in C57BL/6 mouse assessed as survival rate at 20 mg/kg,ip administration observed after 22 days; format: organism-based; settings: in vivo, time 22 day
RPMI-8226 = test: Growth inhibition of human RPMI-8226 cells incubated for 48 hrs by sulforhodamine B spectrophotometric assay; format: functional
Malme-3M [6] = test: Growth inhibition of human Malme-3M cells incubated for 48 hrs by sulforhodamine B spectrophotometric assay; format: functional
SK-MEL-5 [7] = test: Growth inhibition against human SK-MEL-5 cells assessed as total growth inhibitory concentration incubated for 48 hrs by sulforhodamine B spectrophotometric assay; format: functional
A498 = test: Growth inhibition of human A498 cells incubated for 48 hrs by sulforhodamine B spectrophotometric assay; format: functional
HL-60 [8] = test: Growth inhibition against human HL-60 cells assessed as lethal concentration incubated for 48 hrs by sulforhodamine B spectrophotometric assay; format: functional; settings: read-out: LC50 (the source's name)
RXF 393 [9] = test: Growth inhibition against human RXF 393 cells assessed as total growth inhibitory concentration incubated for 48 hrs by sulforhodamine B spectrophotometric assay; format: functional
[10] = GSH reactivity of compound at pH 7.4 phosphate buffer assessed as GSH-adduct formation at 1 mM incubated for 1 hr in presence of sodium borohydride by spectrophotometric analysis; format: physicochemical; settings: pH 7.4, 1 h, 1000 µM
LOX IMVI = test: Growth inhibition against human LOX IMVI cells assessed as total growth inhibitory concentration incubated for 48 hrs by sulforhodamine B spectrophotometric assay; format: functional
CCRF-CEM [11] = test: Induction of cell cycle arrest in human CCRF-CEM cells assessed as accumulation of cells at G0/G1 phase at 4.14 uM incubated for 24 hrs by propidium iodide staining based flow cytometry analysis (reference value: 38.68 +/- 0.75%); format: functional
[12] = Cytotoxicity against mouse J774.2 cells assessed as cell growth inhibition incubated for 72 hrs by MTT assay; format: toxicity, cell-based
ACHN = test: Growth inhibition against human ACHN cells assessed as total growth inhibitory concentration incubated for 48 hrs by sulforhodamine B spectrophotometric assay; format: functional
CCRF-CEM [13] = test: Growth inhibition against human CCRF-CEM cells assessed as total growth inhibitory concentration incubated for 48 hrs by sulforhodamine B spectrophotometric assay; format: functional
HOP-62 = test: Growth inhibition against human HOP-62 cells assessed as total growth inhibitory concentration incubated for 48 hrs by sulforhodamine B spectrophotometric assay; format: functional
OVCAR-5 = test: Growth inhibition against human OVCAR-5 cells assessed as total growth inhibitory concentration incubated for 48 hrs by sulforhodamine B spectrophotometric assay; format: functional
PC-3 [14] = test: Growth inhibition against human PC-3 cells assessed as lethal concentration incubated for 48 hrs by sulforhodamine B spectrophotometric assay; format: functional; settings: read-out: LC50 (the source's name)
K562 = test: Cytotoxicity against human K562 cells assessed as cell growth inhibition incubated for 72 hrs by MTT assay; format: functional, cell-based; settings: K562, 72 h
NCI-H460 = test: Growth inhibition against human NCI-H460 cells assessed as lethal concentration incubated for 48 hrs by sulforhodamine B spectrophotometric assay; format: functional; settings: read-out: LC50 (the source's name)
CCRF-CEM [15] = test: Induction of cell cycle arrest in human CCRF-CEM cells assessed as accumulation of cells at G2/M phase at 20.7 uM incubated for 24 hrs by propidium iodide staining based flow cytometry analysis (reference value: 20.24 +/- 0.25%); format: functional
SK-OV-3 [16] = test: Growth inhibition against human SK-OV-3 cells assessed as total growth inhibitory concentration incubated for 48 hrs by sulforhodamine B spectrophotometric assay; format: functional
CCRF-CEM [17] = test: Induction of cell cycle arrest in human CCRF-CEM cells assessed as RNA synthesis at 20.7 uM incubated for 3 hrs by […] incorporation based flow cytometry analysis (reference value: 31.8 +/- 1.17%); format: functional
MCF7 [18] = test: Growth inhibition against human MCF7 cells assessed as total growth inhibitory concentration incubated for 48 hrs by sulforhodamine B spectrophotometric assay; format: functional
BT-549 [19] = test: Growth inhibition against human BT-549 cells assessed as lethal concentration incubated for 48 hrs by sulforhodamine B spectrophotometric assay; format: functional; settings: read-out: LC50 (the source's name)
KB 3-1 = test: Cytotoxicity against human KB 3-1 cells assessed as cell growth inhibition incubated for 72 hrs by MTT assay; format: functional, cell-based; settings: KB 3-1, 72 h
Malme-3M [20] = test: Anticancer activity against human Malme-3M cells assessed as cell growth at 10 uM incubated for 48 hrs by sulforhodamine B assay; format: functional; settings: read-out: Activity
OVCAR-3 = test: Growth inhibition of human OVCAR-3 cells incubated for 48 hrs by sulforhodamine B spectrophotometric assay; format: functional
HT-29 = test: Growth inhibition against human HT-29 cells assessed as lethal concentration incubated for 48 hrs by sulforhodamine B spectrophotometric assay; format: functional; settings: read-out: LC50 (the source's name)
SK-OV-3 [21] = test: Growth inhibition of human SK-OV-3 cells incubated for 48 hrs by sulforhodamine B spectrophotometric assay; format: functional
UACC-62 = test: Growth inhibition against human UACC-62 cells assessed as total growth inhibitory concentration incubated for 48 hrs by sulforhodamine B spectrophotometric assay; format: functional
[22] = Antileukemic activity against human CLL cell assessed as cell growth inhibition incubated for 72 hrs in presence of BST by MTT assay; format: functional, cell-based
PC-3 [23] = test: Growth inhibition of human PC-3 cells incubated for 48 hrs by sulforhodamine B spectrophotometric assay; format: functional
HL-60 [24] = test: Growth inhibition against human HL-60 cells assessed as total growth inhibitory concentration incubated for 48 hrs by sulforhodamine B spectrophotometric assay; format: functional
MDA-MB-468 = test: Growth inhibition against human MDA-MB-468 cells assessed as lethal concentration incubated for 48 hrs by sulforhodamine B spectrophotometric assay; format: functional; settings: read-out: LC50 (the source's name)
CCRF-CEM [25] = test: Induction of cell cycle arrest in human CCRF-CEM cells assessed as accumulation of cells at G2/M phase at 4.14 uM incubated for 24 hrs by propidium iodide staining based flow cytometry analysis (reference value: 20.24 +/- 0.25%); format: functional
[26] = Acute toxicity in C57BL/6 mouse assessed as neutrophil count at 20 mg/kg,ip administration and observed after 22 days; format: organism-based; settings: in vivo, 528 h, time 22 day
OVCAR-4 = test: Growth inhibition of human OVCAR-4 cells incubated for 48 hrs by sulforhodamine B spectrophotometric assay; format: functional
MCF7 [27] = test: Growth inhibition against human MCF7 cells assessed as lethal concentration incubated for 48 hrs by sulforhodamine B spectrophotometric assay; format: functional; settings: read-out: LC50 (the source's name)
SK-MEL-5 [28] = test: Growth inhibition of human SK-MEL-5 cells incubated for 48 hrs by sulforhodamine B spectrophotometric assay; format: functional

O=C1C2=C(C(=O)c3c(O)cccc31)C(c1ccco1)c1sc(=O)[nH]c1S2 (stereo not drawn)
GI50 (RXF 393 [1]): 2.02 µM
GI50 (SF-295): 1.98 µM
GI50 (BT-549 [2]): 1.64 µM
Activity (MDA-MB-231 [3]): 32.6%
Activity (MDA-MB-231 [4]): 62.7%
survival at 528 h [5]: 100%
GI50 (RPMI-8226): 2.62 µM
GI50 (Malme-3M [6]): 0.75 µM
TGI (SK-MEL-5 [7]): 3 µM
GI50 (A498): 3.48 µM
CC50 (HL-60 [8]): > 100 µM
TGI (RXF 393 [9]): 5.57 µM
Activity [10]: Active
TGI (LOX IMVI): 7.55 µM
Activity (CCRF-CEM [11]): 34.34%
IC50 at 72 h [12]: 2.59 µM
TGI (ACHN): 16.1 µM
TGI (CCRF-CEM [13]): > 100 µM
TGI (HOP-62): 3.74 µM
TGI (OVCAR-5): 4.58 µM
CC50 (PC-3 [14]): > 100 µM
IC50 (K562): 5.98 µM
CC50 (NCI-H460): 7.84 µM
Activity (CCRF-CEM [15]): 22.09%
TGI (SK-OV-3 [16]): 29.6 µM
Activity (CCRF-CEM [17]): 0.07%
TGI (MCF7 [18]): 3.34 µM
CC50 (BT-549 [19]): 6.22 µM
IC50 (KB 3-1): 0.75 µM
growth at 10 µM (Malme-3M [20]): -92.3%
GI50 (OVCAR-3): 2.86 µM
CC50 (HT-29): > 100 µM
GI50 (SK-OV-3 [21]): 15.5 µM
TGI (UACC-62): 3.43 µM
IC50 [22]: 8.24 µM
GI50 (PC-3 [23]): 2.75 µM
TGI (HL-60 [24]): 6.09 µM
CC50 (MDA-MB-468): > 100 µM
Activity (CCRF-CEM [25]): 23.82%
Activity [26]: 31.21%
GI50 (OVCAR-4): 1.79 µM
CC50 (MCF7 [27]): 8.04 µM
GI50 (SK-MEL-5 [28]): 1.59 µM
